Measurements taken from US20080255244A1, “CaM Kinase II Inhibitor Improves Retinoic Acid Therapy and Inhibits the Proliferation of Myeloid Leukemia Cells” (Fred Hutchinson Cancer Research Center, priority 2007, published 2008).

Experiments:
Type in all cases: cell-based, human
[1] = system: C/EBPε RARE; assay: ChIP at the C/EBPε promoter RARE in HL60 cells; conditions: ATRA 1 uM
Protocol: FIG. 6. Retinoic acid induces changes in the association of CaMKIIγ with the C/EBPε promoter RARE. […] (B) The human C/EBPε 5′ region indicating the location of the ChIP PCR primers. (C) ChIP assays. HL60 cell chromatin from cells treated with ATRA (1 uM) for the indicated time was immunoprecipitated with the indicated antibodies, the DNA isolated and subjected to PCR utilizing the indicated C/EBPε promoter primer pairs.
ChIP. HL60 cells incubated for various periods of time after ATRA (1 μM) treatment were harvested and crosslinked using 1% formaldehyde for 15 minutes at 37° and incubated another 15 minutes at room temperature with 125 mM glycine. Cells then were rinsed and washed three times with cold PBS. The cell pellets were resuspended in 0.2-2 ml of SDS lysis buffer (1% SDS, 10 mM EDTA, […] Tris-HCL, pH 8.1) with protease inhibitors(1 μg/ml leupeptin, […] aprotinin, 1 mM PMSF, 1 μg/ml pepstatin A, 10 μM antipain, 10 μM bestatin, 1 mM NaF, and 1× phosphatase inhibitor cocktail I/II) and sonicated three times at 20 s each to reduce DNA length to 200-800 bp. Supernatants were collected by centrifugation for 10 minutes at 13,200 rpm at 4° and diluted in 10 fold dilution buffer (0.01% SDS, 1.1% Triton X-100, 1.2 mm EDTA, 16.7 mM Tris-HCl, pH 8.1, 167 mM NaCl) with the above protease inhibitors. […]

[2] = system: Stat3 transcriptional activity in K562 cells; assay: Stat3 response element luciferase reporter in K562 cells; conditions: 48 hours of culture
Protocol: FIG. 13. Stat3 is directly phosphorylated and activated by CaMKIIγ at Ser727. (A, i). Cell lysates from the indicated human leukemia cell lines were subjected to Western blots utilizing the indicated Stat3 antibodies. ii). Cell lysates from the same primary AML samples depicted in FIG. 1B were subjected to Western blots utilizing the indicated Stat3 antibodies. B). The IL-3 dependent TonB210.1 cells were deprived of IL-3 for 24 hours. The cells were then treated with the indicated compounds immediately prior to the addition of doxycycline. After an additional 24 hours cell lysates were harvested and subjected to Western blots with the indicated Stat3 antibodies. C). K562 cells were electroporated with a luciferase reporter driven by a Stat3 response element. The indicated concentrations of KN93 and the Stat 3 inhibitor, cucurbitacin I, were added and relative luciferase activity determined on cell lysates following 48 hours of culture. D, i) K562 cell lysates were immunoprecipitated with control IgG or a Stat3 antibody. […]
Transient transfections and luciferase assays. […] Stat3 transcriptional activity was determined in K562 cells transfected with the pSIE-tk-LUC luciferase reporter which harbors a Stat3 binding site ([…]). […]

[3] = system: THP1 cells; assay: THP1 proliferation in liquid suspension culture
Protocol: FIG. 11. […] (A) K562 cells were seeded in liquid suspension culture at 5×10^4 cells/ml in the presence or absence of the indicated concentration of compounds, and cell counts were obtained at the indicated time. (B) The indicated myeloid leukemia cell lines were seeded in liquid suspension culture at 5×10^4 cells/ml in the presence or absence of KN93, and cell counts obtained at the indicated time. (C) K562 cells were electroporated with the LXSN expression vector harboring the kinase dead, Lys^43 mutated, truncated CaMKII construct (kdCaMKII) as well as with the control (empty) LXSN vector. The electroporated cells were diluted into 96 well plates in liquid suspension culture in the presence of G418 (1 mg/ml). Following eight days of culture the total number of discrete, actively proliferating G418 resistant colonies within individual wells was determined.
Cell lines. All leukemia cell lines are cultured at 37° in RPMI supplemented with 5% heat-inactivated fetal calf serum.

For `CC1=C(/C=C/C(C)=C/C=C/C(C)=C/C(=O)O)C(C)(C)CCC1` [ATRA, All-trans retinoic acid], the “association of corepressors N-CoR and SMRT with the C/EBPε RARE” value [1] was “rapid displacement” and the “association of CaMKIIγ with the C/EBPε RARE” value ([1]; observed as early as 1-2 hours) was “dissociation”.
`COc1ccc(S(=O)(=O)N(CCO)c2ccccc2CN(C)C/C=C/c2ccc(Cl)cc2)cc1` [KN-93] was tested, and the “Stat3 responsive reporter activity” value [2] was “inhibited”, the cell proliferation [3] was “inhibition” and the “cell viability or morphologic differentiation” value [3] was “without any significant effect”.
